Results from US20230398130A1, “METHODS AND COMPOSITIONS FOR DIFFERENTIATING STEM CELLS” (Massachusetts Institute of Technology, priority 2020, published 2023).

Legend:
ISC-enriched organoids [1] = assay: Primary screen, 384-well 2.5-D organoid differentiation (ENR+CD, 6 days, Target Selective Inhibitor Library, vs whole-plate median): ATP (CellTiter-Glo 3D, CTG); conditions: for Dose.FC.CTG: FC vs plate median; for SSMD.CTG: strictly standardized mean difference
ISC-enriched organoids [2] = assay: Primary screen, 384-well 2.5-D organoid differentiation (ENR+CD, 6 days): carbachol-induced lysozyme secretion (LYZ.S); format: cell-based, murine; conditions: primary screen; for Dose.FC.LYZ.S: FC vs plate median; for Z.LYZ.S: standard z score; for SSMD.LYZ.S: strictly standardized mean difference
Text: (§1) High-throughput screening.

ISC-enriched organoids [3] = assay: Primary screen, 384-well 2.5-D organoid differentiation (ENR+CD, 6 days): basal lysozyme secretion (LYZ.NS); format: cell-based, murine; conditions: for Dose.FC.LYZ.NS: FC vs plate median; for SSMD.LYZ.NS: strictly standardized mean difference
Text: as §1

[4] = Dose 0.08 uM, primary screen, standard z score
[5] = Dose 0.40 uM, primary screen, standard z score
[6] = Dose 2.00 uM, primary screen, standard z score
[7] = Dose 10.00 uM, primary screen, standard z score
[8] = primary screen, 1st of the 4 dose lines of the treatment (dose not given)
[9] = primary screen, 2nd of the 4 dose lines of the treatment (dose not given)
[10] = primary screen, 3rd of the 4 dose lines of the treatment (dose not given)
[11] = primary screen, 4th of the 4 dose lines of the treatment (dose not given)
[12] = 1st of the 4 dose lines of the treatment (dose not given)
[13] = 2nd of the 4 dose lines of the treatment (dose not given)
[14] = 3rd of the 4 dose lines of the treatment (dose not given)
[15] = 4th of the 4 dose lines of the treatment (dose not given)
[16] = Dose 0.08 uM, standard z score of FC
[17] = Dose 0.40 uM, standard z score of FC
[18] = Dose 2.00 uM, standard z score of FC
[19] = Dose 10.00 uM, standard z score of FC

Structure (SMILES) | Dose.FC.CTG (ISC-enriched organoids [1]; Dose 0.08 uM, primary screen) [log 2 fold change] | Z.CTG (ISC-enriched organoids [1]; [4]) | Dose.FC.CTG (ISC-enriched organoids [1]; Dose 0.40 uM, primary screen) [log 2 fold change] | Z.CTG (ISC-enriched organoids [1]; [5]) | SSMD.CTG (ISC-enriched organoids [1]; [8]) | SSMD.CTG (ISC-enriched organoids [1]; [9]) | SSMD.CTG (ISC-enriched organoids [1]; [10]) | SSMD.CTG (ISC-enriched organoids [1]; [11]) | Z.LYZ.S (ISC-enriched organoids [2]; [12]) | Z.LYZ.S (ISC-enriched organoids [2]; [13]) | Z.LYZ.S (ISC-enriched organoids [2]; [14]) | Z.LYZ.S (ISC-enriched organoids [2]; [15]) | SSMD.LYZ.S (ISC-enriched organoids [2]; [12]) | SSMD.LYZ.S (ISC-enriched organoids [2]; [13]) | SSMD.LYZ.S (ISC-enriched organoids [2]; [14]) | SSMD.LYZ.S (ISC-enriched organoids [2]; [15]) | SSMD.LYZ.NS (ISC-enriched organoids [3]; [8]) | SSMD.LYZ.NS (ISC-enriched organoids [3]; [9]) | SSMD.LYZ.NS (ISC-enriched organoids [3]; [10]) | SSMD.LYZ.NS (ISC-enriched organoids [3]; [11]) | also measured
CCCCc1nc(Cl)c(CO)n1Cc1ccc(-c2ccccc2-c2nnn[n-]2)cc1.[K+] [Losartan Potassium (DuP 753)] | −0.152 | −0.362 | −0.175 | −0.418 | −0.338 | −0.304 | −0.274 | −0.390 | −0.112 | 0.173 | −0.519 | −0.164 | −0.104 | 0.194 | −0.616 | −0.185 | 0.273 | 0.263 | −0.341 | 0.423 | Dose.FC.CTG (ISC-enriched organoids [1]; Dose 2.00 uM, primary screen): −0.081 log 2 fold change; Z.CTG (ISC-enriched organoids [1]; [6]): −0.193; Dose.FC.CTG (ISC-enriched organoids [1]; Dose 10.00 uM, primary screen): −0.137 log 2 fold change; Z.CTG (ISC-enriched organoids [1]; [7]): −0.328; Dose.FC.LYZ.S (ISC-enriched organoids [2]; Dose 0.08 uM): −0.017 log 2 fold change; Dose.FC.LYZ.S (ISC-enriched organoids [2]; Dose 0.40 uM): 0.027 log 2 fold change; Dose.FC.LYZ.S (ISC-enriched organoids [2]; Dose 2.00 uM): −0.080 log 2 fold change; Dose.FC.LYZ.S (ISC-enriched organoids [2]; Dose 10.00 uM): −0.025 log 2 fold change; Dose.FC.LYZ.NS (ISC-enriched organoids [3]; Dose 0.08 uM, primary screen): 0.052 log 2 fold change; Z.LYZ.NS (ISC-enriched organoids [3]; [4]): 0.449; Dose.FC.LYZ.NS (ISC-enriched organoids [3]; Dose 0.40 uM, primary screen): 0.038 log 2 fold change; Z.LYZ.NS (ISC-enriched organoids [3]; [5]): 0.329; Dose.FC.LYZ.NS (ISC-enriched organoids [3]; Dose 2.00 uM, primary screen): −0.042 log 2 fold change; Z.LYZ.NS (ISC-enriched organoids [3]; [6]): −0.362; Dose.FC.LYZ.NS (ISC-enriched organoids [3]; Dose 10.00 uM, primary screen): 0.062 log 2 fold change; Z.LYZ.NS (ISC-enriched organoids [3]; [7]): 0.540
CC[C@H](C)C(=O)O[C@H]1C[C@@H](C)C=C2C=C[C@H](C)[C@H](CC[C@@H]3C[C@@H](O)CC(=O)O3)[C@H]21 [Lovastatin] | – | −0.769 | – | −1.174 | −0.609 | −1.511 | −2.978 | −1.911 | −0.147 | −0.320 | −2.572 | −2.645 | −0.128 | −0.236 | −1.424 | −1.288 | 0.014 | −0.516 | −1.430 | −1.590 | Z.CTG (ISC-enriched organoids [1]; [6]): −2.803; Z.CTG (ISC-enriched organoids [1]; [7]): −3.322
CC(C)CCNC(=O)[C@H](CC(C)C)NC(=O)[C@H]1O[C@@H]1C(=O)O [Loxistatin Acid (E-64C)] | 0.086 | 0.206 | 0.156 | 0.373 | 0.218 | 0.402 | 0.176 | 0.270 | 0.808 | 0.677 | 0.238 | 0.138 | 0.833 | 0.449 | 0.159 | 0.141 | 0.757 | 0.330 | 0.411 | 0.027 | Dose.FC.CTG (ISC-enriched organoids [1]; Dose 2.00 uM, primary screen): 0.080 log 2 fold change; Z.CTG (ISC-enriched organoids [1]; [6]): 0.191; Dose.FC.CTG (ISC-enriched organoids [1]; Dose 10.00 uM, primary screen): 0.094 log 2 fold change; Z.CTG (ISC-enriched organoids [1]; [7]): 0.224; Dose.FC.LYZ.S (ISC-enriched organoids [2]; Dose 0.08 uM): 0.125 log 2 fold change; Dose.FC.LYZ.S (ISC-enriched organoids [2]; Dose 0.40 uM): 0.105 log 2 fold change; Dose.FC.LYZ.S (ISC-enriched organoids [2]; Dose 2.00 uM): 0.037 log 2 fold change; Dose.FC.LYZ.S (ISC-enriched organoids [2]; Dose 10.00 uM): 0.021 log 2 fold change; Dose.FC.LYZ.NS (ISC-enriched organoids [3]; Dose 0.08 uM, primary screen): 0.147 log 2 fold change; Z.LYZ.NS (ISC-enriched organoids [3]; [4]): 1.283; Dose.FC.LYZ.NS (ISC-enriched organoids [3]; Dose 0.40 uM, primary screen): 0.061 log 2 fold change; Z.LYZ.NS (ISC-enriched organoids [3]; [5]): 0.534; Dose.FC.LYZ.NS (ISC-enriched organoids [3]; Dose 2.00 uM, primary screen): 0.055 log 2 fold change; Z.LYZ.NS (ISC-enriched organoids [3]; [6]): 0.482; Dose.FC.LYZ.NS (ISC-enriched organoids [3]; Dose 10.00 uM, primary screen): 0.004 log 2 fold change; Z.LYZ.NS (ISC-enriched organoids [3]; [7]): 0.031
C=CCn1c(=O)c2cnc(Nc3ccc(N4CCN(C)CC4)cc3)nc2n1-c1cccc(C(C)(C)O)n1 [MK-1775] | – | – | – | – | 0.536 | −1.242 | −1.697 | −1.818 | 0.424 | −1.404 | −1.345 | −1.643 | 0.440 | −1.378 | −1.357 | −1.331 | 0.317 | −1.150 | −1.545 | −0.993 | Z.CTG (ISC-enriched organoids [1]; [16]): 0.393; Z.CTG (ISC-enriched organoids [1]; [17]): −1.074; Z.CTG (ISC-enriched organoids [1]; [18]): −1.919; Z.CTG (ISC-enriched organoids [1]; [19]): −2.451
Cl.Cl.NC1(c2ccc(-c3nc4ccn5c(=O)[nH]nc5c4cc3-c3ccccc3)cc2)CCC1 [MK-2206 2HCl] | 0.071 | – | −0.023 | – | 0.242 | −0.074 | −0.453 | −1.730 | 0.460 | 0.536 | −1.546 | −2.370 | 0.403 | 0.232 | −1.686 | −1.628 | 0.230 | −0.481 | −1.586 | −1.642 | Z.CTG (ISC-enriched organoids [1]; [16]): 0.169; Z.CTG (ISC-enriched organoids [1]; [17]): −0.055; Dose.FC.CTG (ISC-enriched organoids [1]; Dose 2.00 uM, primary screen): −0.178 log 2 fold change; Z.CTG (ISC-enriched organoids [1]; [18]): −0.425; Dose.FC.CTG (ISC-enriched organoids [1]; Dose 10.00 uM, primary screen): −0.540 log 2 fold change; Z.CTG (ISC-enriched organoids [1]; [19]): −1.290; Dose.FC.LYZ.S (ISC-enriched organoids [2]; Dose 0.08 uM): 0.071 log 2 fold change; Dose.FC.LYZ.S (ISC-enriched organoids [2]; Dose 0.40 uM): 0.083 log 2 fold change; Dose.FC.LYZ.S (ISC-enriched organoids [2]; Dose 2.00 uM): −0.239 log 2 fold change; Dose.FC.LYZ.S (ISC-enriched organoids [2]; Dose 10.00 uM): −0.367 log 2 fold change; Dose.FC.LYZ.NS (ISC-enriched organoids [3]; Dose 0.08 uM, primary screen): 0.024 log 2 fold change; Z.LYZ.NS (ISC-enriched organoids [3]; [16]): 0.205; Dose.FC.LYZ.NS (ISC-enriched organoids [3]; Dose 0.40 uM, primary screen): −0.063 log 2 fold change; Z.LYZ.NS (ISC-enriched organoids [3]; [17]): −0.550; Dose.FC.LYZ.NS (ISC-enriched organoids [3]; Dose 2.00 uM, primary screen): −0.182 log 2 fold change; Z.LYZ.NS (ISC-enriched organoids [3]; [18]): −1.587; Dose.FC.LYZ.NS (ISC-enriched organoids [3]; Dose 10.00 uM, primary screen): −0.236 log 2 fold change; Z.LYZ.NS (ISC-enriched organoids [3]; [19]): −2.058
